In PubChem BioAssay AID2060486 (Molecular Pharmacology Branch, DTP, NCI, 2025):

Tested on: IGROV1 complex spheroids (HUVEC, MSC), viability % test/control
Test: Anticancer human tumor IGROV1 cell line growth inhibition [GQUAD];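 further: spheroids exposed to compounds for 7 days before readout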
Settings: for IC50: curve of first compound; for viability, T/C: stronger effect = lower value
Excerpt: DNA G-quadruplex Stabilizer Agents in Combinations in Complex Spheroids
A high-throughput screen of multi-cell type tumor spheroids was designed to identify active combinations of DNA G-quadruplex stabilizer agents and targeted small molecules. Complex spheroids include a stromal component modeled by human endothelial cells (HUVEC) and fibroblasts modeled by human mesenchymal stem cells (MSCs). The concentration ranges selected for each drug and investigational agent were based upon clinically achievable concentrations if the clinical Cmax of the agent was known.
Compounds. The drugs and investigational agents: pidnarulex (CX-5461; NSC782164), APTO-253 (NSC789042), BRACO-19 (NSC847499), peposertib (NSC802822), ceralasertib (NSC780249), elimusertib (NSC800525), camonsertib (NSC841442), AZD-1390 (NSC803789), olaparib (NSC753686), talazoparib (NSC767125), ART-558 (NSC835418), sotorasib (NSC818433), MRTX-1133 (NSC836407), SN-38 (NSC673596), topotecan (NSC609699), etoposide (NSC141540), doxorubicin (NSC123127), gemcitabine (NSC613327), 5-fluorouracil (NSC19893), paclitaxel (NSC125973), vemurafenib (NSC761431), panobinostat (NSC761190), R-306465 (JNJ-16241199; NSC773264), adavosertib (NSC754352), TP-3654 (NSC805149), carboplatin (NSC241240), KSQ-4279 (NSC840948), and staurosporine (NSC755774) were obtained from the National Cancer Institute (NCI) Developmental Therapeutics Program Chemical Repository (34). The FDA-approved anticancer drug set is available from the NCI Developmental Therapeutics Program. […] The stock solutions were prepared in dimethyl sulfoxide (DMSO, Sigma-Aldrich, St. Louis, MO, cat. D2650) at 800-fold the tested concentration and stored at -70 degrees C prior to their use. All drugs and investigational agents were tested over a range starting from a high concentration at or near the clinical Cmax and decreasing in half-log increments. If the clinical Cmax for an agent had not been determined, the highest concentration tested was 10 microM.
2.3 Cell Culture. All cells were maintained in an incubator at 37 degrees C and 5% CO2 with 95% humidity. The PDC lines were cultured according to standard operating procedures established by the NCI PDMR. All PDCs were thawed and cultured in Matrigel-coated flasks prepared with a working solution of 1X Ham's F-12 nutrient mix, without supplementation (Invitrogen, cat. 11765054), 100 U/mL penicillin-streptomycin (Invitrogen, cat. 15140122), and 2.5% Matrigel (Corning Inc., cat. 354248) for the first three passages. The 857933-349-R-J2-PDC line was cultured in 6C/Colon 1B media, which includes advanced DMEM/F-12 (Thermo Fisher Scientific, cat. 12634028), 10 mM HEPES (Thermo Fisher Scientific, cat. 15630080), 1X GlutaMAX supplement (Thermo Fisher Scientific, cat. 35050061), 0.1 mg/mL primocin (InvivoGen, cat. ant-pm-2), 10% defined fetal bovine serum, heat inactivated (HyClone Laboratories Inc., cat. SH30070.03HI), 50% L-WRN conditioned media (ATCC, cat. CRL-3276), 1.25 mM N-Acetyl-L-cysteine (Sigma-Aldrich, cat. A9165), 10 mM nicotinamide (Sigma-Aldrich, cat. N0636), 1X B-27 supplement (Thermo Fisher Scientific, cat. 17504044), 1X N-2 supplement (Thermo Fisher Scientific, cat. 17502048), 10 microM Y-27632 dihydrochloride (Tocris Bioscience, cat. 1254), and 50 ng/mL human EGF recombinant protein (Thermo Fisher Scientific, cat. PHG0311). The 485176-168-R4-J1-PDC line was cultured in Panc media, which includes all 6C/Colon 1B media components plus 100 ng/mL human FGF-10 (Thermo Fisher Scientific, cat. 100-26), 500 nM SB-431542 (Selleckchem, cat. S1067), and gastrin (Tocris, cat. 3006).
[…]

[1] = second compound 0.0316 µM, first compound 0.0316 µM
[2] = second compound 0.0316 µM, first compound 0.1 µM
[3] = second compound 0.0316 µM, first compound 0.316 µM
[4] = second compound 0.0316 µM, first compound 1 µM
[5] = second compound 0.0316 µM, first compound 3.16 µM
[6] = second compound 0.0316 µM, first compound 10 µM
[7] = second compound 0.1 µM, first compound 0.0316 µM
[8] = second compound 0.1 µM, first compound 0.1 µM
[9] = second compound 0.1 µM, first compound 0.316 µM
[10] = second compound 0.1 µM, first compound 1 µM
[11] = second compound 0.1 µM, first compound 3.16 µM
[12] = second compound 0.1 µM, first compound 10 µM
[13] = second compound 0.316 µM, first compound 0.0316 µM
[14] = second compound 0.316 µM, first compound 0.1 µM
[15] = second compound 0.316 µM, first compound 0.316 µM
[16] = second compound 0.316 µM, first compound 1 µM
[17] = second compound 0.316 µM, first compound 3.16 µM
[18] = second compound 0.316 µM, first compound 10 µM
[19] = second compound 1 µM, first compound 0.0316 µM
[20] = second compound 1 µM, first compound 0.1 µM
[21] = second compound 1 µM, first compound 0.316 µM
[22] = second compound 1 µM, first compound 1 µM
[23] = second compound 1 µM, first compound 3.16 µM
[24] = second compound 1 µM, first compound 10 µM
[25] = second compound 3.16 µM, first compound 0.0316 µM
[26] = second compound 3.16 µM, first compound 0.1 µM
[27] = second compound 3.16 µM, first compound 0.316 µM
[28] = second compound 3.16 µM, first compound 1 µM
[29] = second compound 3.16 µM, first compound 3.16 µM
[30] = second compound 3.16 µM, first compound 10 µM
[31] = second compound 10 µM, first compound 0.0316 µM
[32] = second compound 10 µM, first compound 0.1 µM
[33] = second compound 10 µM, first compound 0.316 µM
[34] = second compound 10 µM, first compound 1 µM
[35] = second compound 10 µM, first compound 3.16 µM
[36] = second compound 10 µM, first compound 10 µM

COc1cc(C2c3cc4c(cc3C(OC3OC5COC(C)OC5C(O)C3O)C3COC(=O)C23)OCO4)cc(OC)c1O (centres undefined) + CN(C)c1ccc(Nc2c3ccc(NC(=O)CCN4CCCC4)cc3nc3cc(NC(=O)CCN4CCCC4)ccc23)cc1
IC50 (second compound 0.0316 µM): 0.138 µM | IC50 (second compound 0.1 µM): 0.109 µM | IC50 (second compound 0.316 µM): 0.0935 µM | IC50 (second compound 1 µM): 0.0841 µM | IC50 (second compound 3.16 µM): 0.0985 µM | IC50 (second compound 10 µM): < 0.0316 µM | viability, T/C [1]: 88.3% | viability, T/C [2]: 59.8% | viability, T/C [3]: 25.1% | viability, T/C [4]: 13.8% | viability, T/C [5]: 9.71% | viability, T/C [6]: 6.8% | viability, T/C [7]: 90.7% | viability, T/C [8]: 51.9% | viability, T/C [9]: 24.9% | viability, T/C [10]: 11.9% | viability, T/C [11]: 9.44% | viability, T/C [12]: 6.65% | viability, T/C [13]: 88% | viability, T/C [14]: 47.6% | viability, T/C [15]: 23.2% | viability, T/C [16]: 11.3% | viability, T/C [17]: 9.49% | viability, T/C [18]: 5.93% | viability, T/C [19]: 83.4% | viability, T/C [20]: 44.5% | viability, T/C [21]: 18.1% | viability, T/C [22]: 12.9% | viability, T/C [23]: 9.59% | viability, T/C [24]: 5.75% | viability, T/C [25]: 85.2% | viability, T/C [26]: 49.4% | viability, T/C [27]: 24.6% | viability, T/C [28]: 11% | viability, T/C [29]: 9.22% | viability, T/C [30]: 5.74% | viability, T/C [31]: 50.3% | viability, T/C [32]: 22.1% | viability, T/C [33]: 13.1% | viability, T/C [34]: 7.21% | viability, T/C [35]: 6.58% | viability, T/C [36]: 4.87%

O=c1[nH]cc(F)c(=O)[nH]1 + CN(C)c1ccc(Nc2c3ccc(NC(=O)CCN4CCCC4)cc3nc3cc(NC(=O)CCN4CCCC4)ccc23)cc1
IC50 (second compound 0.0316 µM): 6.41 µM | IC50 (second compound 0.1 µM): 6.78 µM | IC50 (second compound 0.316 µM): 6.4 µM | IC50 (second compound 1 µM): 5.9 µM | IC50 (second compound 3.16 µM): 6.18 µM | IC50 (second compound 10 µM): 3.69 µM | viability, T/C [1]: 112% | viability, T/C [2]: 96.7% | viability, T/C [3]: 104% | viability, T/C [4]: 82.3% | viability, T/C [5]: 90.6% | viability, T/C [6]: 27.7% | viability, T/C [7]: 97.6% | viability, T/C [8]: 94% | viability, T/C [9]: 83.1% | viability, T/C [10]: 84.3% | viability, T/C [11]: 90.4% | viability, T/C [12]: 29.8% | viability, T/C [13]: 92.1% | viability, T/C [14]: 87.8% | viability, T/C [15]: 96.8% | viability, T/C [16]: 88.2% | viability, T/C [17]: 83% | viability, T/C [18]: 29.1% | viability, T/C [19]: 69.5% | viability, T/C [20]: 72% | viability, T/C [21]: 78.8% | viability, T/C [22]: 90.8% | viability, T/C [23]: 90.4% | viability, T/C [24]: 24.2% | viability, T/C [25]: 73.3% | viability, T/C [26]: 84.8% | viability, T/C [27]: 94.1% | viability, T/C [28]: 86.2% | viability, T/C [29]: 81% | viability, T/C [30]: 27.7% | viability, T/C [31]: 66.5% | viability, T/C [32]: 58% | viability, T/C [33]: 52.8% | viability, T/C [34]: 70.1% | viability, T/C [35]: 55.2% | viability, T/C [36]: 16.4%
